Data published in US10221171B2, “Oxathiazole thiazolium Hsp 70 inhibitors” (THE REGENTS OF THE UNIVERSITY OF CALIFORNIA, priority 2015, dated 2019).
Read-outs that look alike come from different tables or passages of the source.

Columns and labels:
Assay type in all cases: cell-based
MDA-MB-231 = assay: MTT cell viability assay, MDA-MB-231; details: Homo sapiens
Description: (§1) Cells were then treated with compound at various concentrations in 0.2 mL media. After the 72-hour incubation period, cells were washed in PBS (3×100 μL), and 10 μL MTT reagent was added with 100 μL fresh media. Cells were then incubated for 4 hr in a humidified chamber at 37° C. with 5% CO2. Insoluble formazan crystals were solubilized by addition of 0.1 mL detergent solution (4 hr at room temp., dark). Resulting colored solutions were then quantified at an absorbance of 570 nm.

MEF (C57BL/6) = assay: MTT cell viability assay, MEF (C57BL/6); details: Mus musculus
Description: as §1

MCF-7 = assay: MTT cell viability assay, MCF-7; details: Homo sapiens, MTT, 72-hour incubation, read-out: IC50/μM MCF-7
Description: as §1

[1] = MTT, 72-hour incubation, read-out: IC50/μM MEF (C57BL/6)
[2] = 72 h, read-out: IC50/μM MEF (C57BL/6), MTT, 72-hour incubation
[3] = MDA-MB-231, 72 h, 72-hour incubation

Compound	IC50 (MDA-MB-231; MDA-MB-231, 72-hour incubation) [µM]	IC50 (MEF (C57BL/6); [1]) [µM]	IC50 (MCF-7; MCF7) [µM]	IC50 (MEF (C57BL/6); [2]) [µM]	IC50 (MDA-MB-231; [3]) [µM]	IC50 (MCF-7; MCF7, 72 h) [µM]
CCn1c(=O)/c(=C2\Sc3cc(Cl)ccc3N2C)s/c1=C\c1scc[n+]1CCc1ccc(Cl)cc1 [JG-385]	0.61 ± 0.05	4.4 ± 0.3	0.69 ± 0.05	–	–	–
CCn1c(=O)/c(=C2\Sc3ccc(C)cc3N2C)s/c1=C\c1scc[n+]1Cc1ccccc1C [JG-366]	0.22 ± 0.02	0.99 ± 0.04	0.19 ± 0.01	–	–	–
CCn1c(=O)/c(=C2\Sc3cc(SC)ccc3N2C)s/c1=C\c1scc[n+]1Cc1ccccc1C(=O)OC [JG-357]	0.14 ± 0.01	3.5 ± 0.2	0.25 ± 0.01	–	–	–
CCn1c(=O)/c(=C2\Sc3cc(Cl)ccc3N2C)s/c1=C\c1scc[n+]1Cc1csc(NC(C)=O)n1 [JG-261]	> 20	–	> 5	4.2 ± 0.6	–	–
CCc1ccc2c(c1)S/C(=c1/s/c(=C\c3scc[n+]3Cc3ccccc3Cl)n(CC)c1=O)N2C [JG-295]	0.093 ± 0.005	0.48 ± 0.01	0.084 ± 0.006	–	–	–
CCn1c(=O)/c(=C2\Sc3cc(Br)ccc3N2C)s/c1=C\c1scc[n+]1Cc1ccccc1C [JG-290]	0.21 ± 0.02	1.7 ± 0.1	0.16 ± 0.01	–	–	–
CCn1c(=O)/c(=C2\Sc3cc(OC)ccc3N2C)s/c1=C\c1scc[n+]1CCc1ccc(Cl)cc1 [JG-396]	0.2 ± 0.03	4 ± 0.2	1.7 ± 0.3	–	–	–
CCn1c(=O)/c(=C2\Sc3cc(OC)ccc3N2C)s/c1=C\c1scc[n+]1Cc1ccc(C(F)(F)F)o1 [JG-306]	0.1 ± 0.01	> 10	0.16 ± 0.02	–	–	–
CCn1c(=O)/c(=C2\Sc3cc(Cl)ccc3N2C)s/c1=C\c1scc[n+]1CCc1ccccc1OC [JG-389]	0.27 ± 0.01	2.4 ± 0.1	0.86 ± 0.08	–	–	–
CCc1ccc2c(c1)S/C(=c1/s/c(=C\c3scc[n+]3Cc3c(C)cccc3C)n(CC)c1=O)N2C [JG-343]	0.25 ± 0.01	0.64 ± 0.01	0.22 ± 0.02	–	–	–
CCn1c(=O)/c(=C2\Sc3cc(OC)ccc3N2C)s/c1=C\c1scc[n+]1CCc1ccccc1OC [JG-397]	0.083 ± 0.007	1.3 ± 0.1	0.08 ± 0.008	–	–	–
CCn1c(=O)/c(=C2\Sc3cc(C)ccc3N2C)s/c1=C\c1scc[n+]1Cc1ccccc1SC(F)(F)F [JG-373]	0.22 ± 0.03	0.44 ± 0.03	0.095 ± 0.005	–	–	–
CCn1c(=O)/c(=C2\Sc3cc(SC)ccc3N2C)s/c1=C\c1scc[n+]1Cc1cc(C)sc1C [JG-359]	0.25 ± 0.01	1.6 ± 0.1	0.21 ± 0.01	–	–	–
CCn1c(=O)/c(=C2\Sc3cc(Cl)ccc3N2C)s/c1=C\c1scc[n+]1Cc1cccc(Cl)c1 [JG-271]	–	–	–	0.69 ± 0.03	0.51 ± 0.06	0.26 ± 0.02
CCn1c(=O)/c(=C2\Sc3ccc(OC)cc3N2C)s/c1=C\c1scc[n+]1Cc1ccccc1 [JG-376]	–	1 ± 0.1	–	–	0.36 ± 0.05	0.37 ± 0.02
CCn1c(=O)/c(=C2\Sc3cc(SC)ccc3N2C)s/c1=C\c1scc[n+]1Cc1ccccc1C [JG-310]	0.11 ± 0.01	2.2 ± 0.2	0.23 ± 0.04	–	–	–
CCn1c(=O)/c(=C2\Sc3ccc(C)cc3N2C)s/c1=C\c1scc[n+]1Cc1occc1C(=O)OC [JG-370]	0.18 ± 0.02	1.2 ± 0.1	0.22 ± 0.01	–	–	–
CCn1c(=O)/c(=C2\Sc3cc(C)ccc3N2C)s/c1=C\c1scc[n+]1Cc1ccccc1OC(F)(F)F [JG-270]	–	–	–	0.75 ± 0.05	0.077 ± 0.009	0.064 ± 0.005
CCn1c(=O)/c(=C2\Sc3cc(Cl)ccc3N2C)s/c1=C\c1scc[n+]1CCc1ccccc1C [JG-391]	0.26 ± 0.01	2.5 ± 0.2	0.68 ± 0.04	–	–	–
CCc1ccc2c(c1)S/C(=c1/s/c(=C\c3scc[n+]3C(C)c3ccccc3)n(CC)c1=O)N2C (stereo not drawn) [JG-320]	0.3 ± 0.05	1.3 ± 0.04	0.1 ± 0.01	–	–	–
